# Several values for one entry are separate records, joined by “and”; a condition that tells them apart may be missing. Equal entries are not always repeated. Where two headings read alike, the source gives them in different places. Marks after values point to notes of the source that are not given here.
# Tests used:
# [1] = tested on: relapsed/refractory CLL/SLL; settings: for Duration of response events: death / Duration of response events: progressive disease / Duration of response: events: responders
# [2] = multiple doses of a moderate CYP3A inhibitor; cited from earlier work
# [3] = IRC assessed, ITT, Table 15 data cut-off
# [4] = IRC assessed, ITT, final analysis
# [5] = IRC assessed, del(17p)/TP53 mutation, final analysis
# [6] = investigator assessed, ITT, Table 15 data cut-off
# [7] = investigator assessed, ITT, final analysis
# [8] = investigator assessed, del(17p)/TP53 mutation, final analysis
compound,measurement,setting,value
"C=CC(=O)N1CCC([C@@H]2CCNc3c(C(N)=O)c(-c4ccc(Oc5ccccc5)cc4)nn32)CC1 [zanubrutinib, (S)-7-(1-acryloylpiperidin-4-yl)-2-(4-phenoxyphenyl)-4,5,6,7-tetrahydropyrazolo[1,5-a]pyrimidine-3-carboxamide]","24-month event-free rate, duration of response (95% CI)",[1]; IRC assessed,77.4 (71.0-82.5) %
same,Median duration of response (95% CI),[1]; IRC assessed,had not yet been reached
same,Best response CR or CRi,[1]; [3],13 (4.0) n (%)
same,Best response PD,[1]; [3],3 (0.9) n (%)
same,Best response PR or nPR,[1]; [3],250 (76.5) n (%)
same,Best response PR-L,[1]; [3],33 (10.1) n (%)
same,Best response SD,[1]; [3],20 (6.1) n (%)
same,"Discontinue prior to first assessment, NA or NE",[1]; [3],8 (2.4) n (%)
same,ORR (95% CI),[1]; [3],"80.4† (75.7, 84.6) %"
same,Best response CR or CRi,[1]; [4],22 (6.7) n (%)
same,Best response PD,[1]; [4],3 (0.9) n (%)
same,Best response PR or nPR,[1]; [4],260 (79.5) n (%)
same,Best response PR-L,[1]; [4],18 (5.5) n (%)
same,Best response SD,[1]; [4],16 (4.9) n (%)
same,"Discontinue prior to first assessment, NA or NE",[1]; [4],8 (2.4) n (%)
same,ORR,[1]; [4],86.2%
same,Best response CR or CRi,[1]; [5],6 (8.0) n (%)
same,Best response PD,[1]; [5],1 (1.3) n (%)
same,Best response PR or nPR,[1]; [5],58 (77.3) n (%)
same,Best response PR-L,[1]; [5],4 (5.3) n (%)
same,Best response SD,[1]; [5],3 (4.0) n (%)
same,"Discontinue prior to first assessment, NA or NE",[1]; [5],3 (4.0) n (%)
same,ORR,[1]; [5],85.3%
same,Median duration of response (95% CI),"[1]; IRC assessed, listed as Zanubrutinib","NE (31.3, NE)"
same,Duration of response events: death,[1]; IRC assessed,20 (7.1) n (%)
same,Duration of response events: progressive disease,[1]; IRC assessed,40 (14.2) n (%)
same,Duration of response: events,[1]; IRC assessed,60 (21.3) n (%)
same,Treatment discontinuation due to progressive disease,[1]; ITT,7.3%
same,"PFS HR (95% CI), zanubrutinib over ibrutinib","[1]; accounting for drug interruption (ITT), independent review","0.71 (0.53, 0.95)"
same,"PFS HR (95% CI), zanubrutinib over ibrutinib","[1]; accounting for drug interruption (ITT), investigator assessment","0.71 (0.52, 0.96)"
same,"PFS HR (95% CI), zanubrutinib over ibrutinib","[1]; alternative censoring rules (ITT), independent review","0.63 (0.48, 0.84)"
same,"PFS HR (95% CI), zanubrutinib over ibrutinib","[1]; alternative censoring rules (ITT), investigator assessment","0.65 (0.49, 0.87)"
same,Deaths,[1]; final analysis data cut-off,48 n
same,"PFS HR (95% CI), zanubrutinib over ibrutinib",[1]; in vivo,"0.62 (0.46, 0.84) and 0.62 (0.45, 0.84)"
same,Treatment-failure event-free rate at 24 months,[1]; in vivo,79.9%
same,"24-month event-free rate, duration of response (95% CI)",[1]; investigator assessed,79.5 (73.1-84.6) %
same,Median PFS,[1]; investigator assessed,not reached
same,Median duration of response (95% CI),[1]; investigator assessed,had not yet been reached
same,PFS rate at 24 months,[1]; investigator assessed,78.4%
same,Patients with disease progression or death,[1]; investigator assessed,87 patients
same,Rate of partial response with lymphocytosis or better,"[1]; investigator assessed, ITT",89.9%
same,Best response CR or CRi,[1]; [6],16 (4.9) n (%)
same,Best response PD,[1]; [6],1 (0.3) n (%)
same,Best response PR or nPR,[1]; [6],244 (74.6) n (%)
same,Best response PR-L,[1]; [6],32 (9.8) n (%)
same,Best response SD,[1]; [6],25 (7.6) n (%)
same,"Discontinue prior to first assessment, NA or NE",[1]; [6],9 (2.8) n (%)
same,ORR (95% CI),[1]; [6],"79.5* (74.7, 83.8) %"
same,Best response CR or CRi,[1]; [7],23 (7.0) n (%)
same,Best response PD,[1]; [7],1 (0.3) n (%)
same,Best response PR or nPR,[1]; [7],250 (76.5) n (%)
same,Best response PR-L,[1]; [7],21 (6.4) n (%)
same,Best response SD,[1]; [7],23 (7.0) n (%)
same,"Discontinue prior to first assessment, NA or NE",[1]; [7],9 (2.8) n (%)
same,ORR,[1]; [7],83.5%
same,Best response CR or CRi,[1]; [8],5 (6.7) n (%)
same,Best response PD,[1]; [8],0 n (%)
same,Best response PR or nPR,[1]; [8],56 (74.7) n (%)
same,Best response PR-L,[1]; [8],6 (8.0) n (%)
same,Best response SD,[1]; [8],5 (6.7) n (%)
same,"Discontinue prior to first assessment, NA or NE",[1]; [8],3 (4.0) n (%)
same,ORR,[1]; [8],81.3%
same,Median duration of response (95% CI),"[1]; investigator assessed, listed as Zanubrutinib","NE (31.3, NE)"
same,Duration of response events: death,[1]; investigator assessed,20 (7.3) n (%)
same,Duration of response events: progressive disease,[1]; investigator assessed,33 (12.1) n (%)
same,Duration of response: events,[1]; investigator assessed,53 (19.4) n (%)
same,PD detected by decrease in platelet count,"[1]; investigator assessment, ITT",0
same,PD detected by increase in lymph nodes,"[1]; investigator assessment, ITT",40 (12.2)
same,PD detected by new enlarged lymph nodes,"[1]; investigator assessment, ITT",3 (0.9)
same,PD detected by new or increase in splenomegaly,"[1]; investigator assessment, ITT",8 (2.4)
same,PD detected by new symptomatic disease,"[1]; investigator assessment, ITT",3 (0.9)
same,Patients with disease transformation,"[1]; investigator assessment, ITT",5 (1.5)
same,Patients with progressive disease,"[1]; investigator assessment, ITT",54 (16.5)
same,"PFS HR (95% CI), zanubrutinib over ibrutinib","[1]; per protocol population (N = 646), independent review","0.64 (0.48, 0.85)"
same,"PFS HR (95% CI), zanubrutinib over ibrutinib","[1]; per protocol population (N = 646), investigator assessment","0.64 (0.48, 0.85)"
same,Increase in zanubrutinib Cmax and AUC,[2],2- to 3 fold and 2 to 3 fold

# — patent US11911386B2, “Methods of treating B-cell proliferative disorder” (BeiGene Switzerland GmbH, priority 2022, dated 2024)
